The values that follow come from US20070167628A1, “Thiazole-2-carboxamide derivatives for use as hippar agonists in the treatment of i.a. dyslipidemia” (priority 2003, published 2007).

Format in all cases: cell-based
What all share (settings): SPAP reporter

Assay [1] deals with T1, HPPARα (Homo sapiens, UniProt Q07869).
T1 construct: expressed in transfected cells; host or cells: CV-1 cells
T1 sequence (Q07869 239-466 limits assumed): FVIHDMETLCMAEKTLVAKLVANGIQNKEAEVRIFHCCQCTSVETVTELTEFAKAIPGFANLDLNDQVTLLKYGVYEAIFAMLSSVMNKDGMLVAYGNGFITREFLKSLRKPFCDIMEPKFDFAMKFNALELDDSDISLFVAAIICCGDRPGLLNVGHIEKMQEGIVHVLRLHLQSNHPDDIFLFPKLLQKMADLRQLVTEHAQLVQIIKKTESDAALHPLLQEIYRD
Briefly: Transient transfection (transactivation) assay, hPPAR alpha-GAL4 chimera in CV-1 cells. From the text: (§1) Compounds were screened for functional potency in transient transfection assays in CV-1 cells for their ability to activate the PPAR subtypes (transactivation assay). A previously established chimeric receptor system was utilized to allow comparison of the relative transcriptional activity of the receptor subtypes on the same target gene and to prevent endogenous receptor activation from complicating the interpretation of results. See, for example, Lehmann, J. M.; Moore, L. B.; Smith-Oliver, T. A.; Wilkison, W. O.; Willson, T. M.; Kliewer, S. A., An antidiabetic thiazolidinedione is a high affinity ligand for peroxisome proliferator-activated receptor gamma (PPARgamma), J. Biol. Chem., 270, 12953-6 (1995). The ligand binding domains for murine and human PPAR alpha, PPAR gamma, and PPAR delta were each fused to the yeast transcription factor GAL4 DNA binding domain. CV-1 cells were transiently transfected with expression vectors for the respective PPAR chimera along with a reporter construct containing five copies of the GAL4 DNA binding site driving expression of secreted placental alkaline phosphatase (SPAP) and beta-galactosidase. After 16 h, the medium was exchanged to DME medium supplemented with 10% delipidated fetal calf serum and the test compound at the appropriate concentration. […]

For assay [2], the target named is T2, HPPARγ (Homo sapiens, UniProt P37231).
T2 construct: expressed in transfected cells; host or cells: CV-1 cells
T2 sequence (P37231 238-503 limits assumed): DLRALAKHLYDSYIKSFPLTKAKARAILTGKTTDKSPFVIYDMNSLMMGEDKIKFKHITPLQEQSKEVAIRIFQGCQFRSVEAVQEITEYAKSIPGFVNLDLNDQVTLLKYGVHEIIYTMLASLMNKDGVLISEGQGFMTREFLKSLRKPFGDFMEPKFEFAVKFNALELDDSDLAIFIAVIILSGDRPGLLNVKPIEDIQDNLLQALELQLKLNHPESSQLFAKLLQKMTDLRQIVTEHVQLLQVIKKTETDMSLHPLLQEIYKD
Briefly: Transient transfection (transactivation) assay, hPPAR gamma-GAL4 chimera in CV-1 cells.
From the text: as §1

Assay [3] concerns the target T3, HPPARδ (Homo sapiens, UniProt Q03181).
T3 construct: expressed in transfected cells; host or cells: CV-1 cells
T3 sequence (Q03181 211-439 limits assumed): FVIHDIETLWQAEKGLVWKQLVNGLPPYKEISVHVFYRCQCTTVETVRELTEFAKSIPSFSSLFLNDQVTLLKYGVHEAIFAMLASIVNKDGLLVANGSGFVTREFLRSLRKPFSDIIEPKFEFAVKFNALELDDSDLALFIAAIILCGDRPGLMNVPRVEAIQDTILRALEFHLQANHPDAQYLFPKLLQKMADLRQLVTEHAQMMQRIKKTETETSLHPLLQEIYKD
Briefly: Transient transfection (transactivation) assay, hPPAR delta-GAL4 chimera in CV-1 cells.
From the text: as §1

One may read the EC50 as the concentration needed to bring the measured effect to its halfway point. A low value points to higher potency in that assay.

Take `Cc1nc(C(=O)NCc2ccc(OC(C)(C)C(=O)O)cc2)sc1-c1ccc(C(C)C)cc1` [Example 1, 2-methyl-2-[(4-{[({4-methyl-5-[4-(1-methylethyl)phenyl]-1,3-thiazol-2-yl}carbonyl)amino]methyl}phenyl)oxy]propanoic acid]: the EC50 in assay [1] was 0.008 µM; in assay [2], 0.19 µM; in assay [3], 6.1 µM.
